These results are taken from patent US20240109853A1 (Shanghai Yao Yuan Biotechnology Co., Ltd., priority 2020, published 2024).

Test [1] has as its system ALPK1-dependent NFκB reporter gene activation in HEK293 cells stably expressing an NF-kB reporter (G9 cells). The experiment in a line: NFκB gene reporter alkaline phosphatase assay. The conditions noted are these: Homo sapiens, HEK293; read-out: NFkB assay IC50. In kind it is cell-based. From the text: In embodiments, a compound of Formula I, or a subembodiment described herein, is an inhibitor of ALPK1 as measured, for example, in an in vitro kinase assay, or an assay designed to measure the activation of downstream targets of ALPK1 pathway activation, for example NFkB transcriptional activation and the secretion of proinflammatory cytokines and chemokines, such as IL-8, which is also referred to as CXCL-8. In general, the computer program XL fit was used for data analysis, including non-linear regression analysis. The half maximal inhibitory concentration (IC50) was used as the measure of a compound's effectiveness in the assays. IC50 values were determined using the following logistic equation Y=min+(max−min)/(1+(X/IC50^−hillslpoe), where Y is the value at the compound concentration, X. The concentration response curve fitting was conducted using GraphPad Prism version 6.00 software.
An alkaline phosphatase reporter assay system was used to measure inhibition of ALPK1-dependent NFκB reporter gene activation. Briefly, HEK293 cells stably expressing an NF-kB reporter (referred to herein as “G9 cells”) were maintained in DMEM as described above. For the assay, cells were seeded into 96-well plates at a density of 10,000 cells/well in Freestyle™ 293 Expression Medium (ThermoFisher), and allowed to attach overnight. Cells were pretreated with serially diluted compounds for 30 min and then stimulated with D-glycero-D-manno-6-fluoro-heptose-1β-S-ADP. […] NFkB gene activation was detected using the chromogenic substrate, para-nitrophenyl phosphate (pNPP) according to the manufacturer's protocols (pNPP Phosphatase Assay, Beyotime Biotechnology).

The target of test [2] is ALPK1 (Homo sapiens (Human), UniProt Q96QP1). The experiment in a line: ALPK1 in vitro kinase assay (HTRF of TIFA phosphorylation). In kind it is biochemical.
Chain of ALPK1 (Q96QP1 whole entry): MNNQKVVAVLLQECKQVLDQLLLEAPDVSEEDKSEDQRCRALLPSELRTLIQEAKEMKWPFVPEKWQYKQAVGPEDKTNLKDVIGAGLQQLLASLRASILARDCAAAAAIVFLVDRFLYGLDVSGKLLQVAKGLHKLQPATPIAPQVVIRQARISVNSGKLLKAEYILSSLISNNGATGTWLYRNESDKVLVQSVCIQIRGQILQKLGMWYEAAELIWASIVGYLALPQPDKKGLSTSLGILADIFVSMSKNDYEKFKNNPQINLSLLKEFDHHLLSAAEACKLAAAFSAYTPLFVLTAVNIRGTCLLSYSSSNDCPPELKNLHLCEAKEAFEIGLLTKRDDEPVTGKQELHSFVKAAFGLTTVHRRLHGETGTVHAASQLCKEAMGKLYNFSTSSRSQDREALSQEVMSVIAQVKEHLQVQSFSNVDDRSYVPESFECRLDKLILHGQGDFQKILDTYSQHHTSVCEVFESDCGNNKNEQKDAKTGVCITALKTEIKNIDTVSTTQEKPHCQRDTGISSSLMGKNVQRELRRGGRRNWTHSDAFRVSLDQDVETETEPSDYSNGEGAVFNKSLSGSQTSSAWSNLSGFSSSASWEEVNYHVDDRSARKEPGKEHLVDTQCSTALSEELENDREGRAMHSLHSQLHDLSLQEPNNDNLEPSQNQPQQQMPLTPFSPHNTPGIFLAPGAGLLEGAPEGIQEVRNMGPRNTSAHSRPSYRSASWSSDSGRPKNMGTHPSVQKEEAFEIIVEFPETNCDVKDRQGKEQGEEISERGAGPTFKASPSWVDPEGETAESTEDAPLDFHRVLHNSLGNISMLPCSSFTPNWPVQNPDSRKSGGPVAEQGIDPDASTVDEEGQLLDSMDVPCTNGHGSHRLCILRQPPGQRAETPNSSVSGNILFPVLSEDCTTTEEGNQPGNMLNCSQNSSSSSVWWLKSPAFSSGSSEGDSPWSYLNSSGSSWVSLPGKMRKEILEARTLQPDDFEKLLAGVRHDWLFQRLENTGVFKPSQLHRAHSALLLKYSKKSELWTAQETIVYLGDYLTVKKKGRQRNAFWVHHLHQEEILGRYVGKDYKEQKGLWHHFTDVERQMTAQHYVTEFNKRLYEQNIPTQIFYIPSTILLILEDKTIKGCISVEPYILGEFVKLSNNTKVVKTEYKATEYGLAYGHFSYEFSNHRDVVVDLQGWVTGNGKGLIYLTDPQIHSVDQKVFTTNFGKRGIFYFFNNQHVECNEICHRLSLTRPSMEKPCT

Turning to `COc1ccc(C(C)(C)c2csc(NC(=O)NCc3cnc(N4CCN(CCO)CC4)c(F)c3)n2)cc1` [Example A216, 1-((5-fluoro-6-(4-(2-hydroxyethyl)piperazin-1-yl)pyridin-3-yl)methyl)-3-(4-(2-(4-methoxyphenyl)propan-2-yl)thiazol-2-yl)urea], the results for the IC50 in test [1] and in test [2] were 1430 nM and 61 nM, respectively.

Take `C#C[C@@](C)(c1ccc(OC)cc1)c1csc(NC(N)=O)n1` [Example A173, (S)-1-(4-(2-(4-methoxyphenyl)but-3-yn-2-yl)thiazol-2-yl)urea]: the IC50 in test [1] was determined as 580 nM; in test [2], 8 nM.

Turning to `O=C(Nc1nc(C2(c3ccc(Br)cc3)CCCC2)cs1)N1CC(c2ccc(N3CCNCC3)c(F)c2)C1` [Example A236, N-(4-(1-(4-bromophenyl)cyclopent-yl)thiazol-2-yl)-3-(3-fluoro-4-(piperazin-1-yl)phenyl)azetidine-1-carboxamide], the IC50 in test [1] turned out to be 4500 nM; in test [2], 13 nM.

As to `COc1ccc(C(C)(C)c2csc(NC(=O)NCCCCO)n2)cc1` [Example A128, 1-(4-hydroxybutyl)-3-(4-(2-(4-methoxyphenyl)propan-2-yl)thiazol-2-yl)urea], the IC50 stood at 530 nM in test [1] and 146 nM in test [2].

As to `COc1ccc(C(C)(C)c2csc(NC(=O)NCc3cc(F)c(N4CC5CC(C4)N5)c(F)c3)n2)cc1` [Example A232], the IC50 was 590 nM in test [1] and 88 nM in test [2].

For the molecule `C#CC(C)(c1ccc(Cl)cc1)c1csc(NC(=O)NCc2ccc(N3CCNCC3)c(F)c2)n1` (centres unmarked) [Example A262, 1-(4-(2-(4-chlorophenyl)but-3-yn-2-yl)thiazol-2-yl)-3-(3-fluoro-4-(piperazin-1-yl)benzyl)urea], the IC50 in test [1] was found to be 670 nM; in test [2] it was 13 nM.

As for `C#C[C@](C)(c1ccc(Cl)cc1)c1csc(NC(=O)NCC2(O)CNC2)n1` (stereo in doubt) [Example A286, 1-(4-(2-(4-chlorophenyl)but-3-yn-2-yl)thiazol-2-yl)-3-((3-hydroxyazetidin-3-yl)methyl)urea], the results for the IC50 in test [1] and in test [2] were 15400 nM and 495 nM, respectively.

Take `COc1ccc(C(C)(C)c2csc(NC(=O)NCc3cncnc3)n2)cc1` [Example A104, 1-(4-(2-(4-methoxyphenyl)propan-2-yl)thiazol-2-yl)-3-(pyrimidin-5-ylmethyl)urea]: the results for the IC50 in test [1] and in test [2] were 1690 nM and 223 nM, respectively.

With `[2H]c1sc(NC(=O)NCCO)nc1[C@@](C)(C#C)c1ccc(Cl)cc1` [Example A299, 1-(4-(2-(4-chlorophenyl)but-3-yn-2-yl)thiazol-2-yl)-3-(2-hydroxyethyl)urea], the IC50 in test [1] is 460 nM; in test [2] it was 58 nM.

On to `CC(C)(c1ccc(Br)cc1)c1csc(NC(=O)NCc2cnc(NCCN)nc2)n1` [Example A081, 1-((2-((2-aminoethyl)amino)pyri-midin-5-yl)methyl)-3-(4-(2-(4-bromophenyl)propan-2-yl)thiazol-2-yl)urea], for which the IC50 came to 1840 nM in test [1] and 17 nM in test [2].

On to `O=C(NCCO)Nc1nc(C2(c3ccc(Br)cc3)CCC2)cs1` [Example A158, 1-(4-(1-(4-bromophenyl)cyclobutyl)thiazol-2-yl)-3-(2-hydroxyethyl)urea], for which the IC50 in test [1] was determined as 2860 nM; in test [2], 67 nM.

Regarding `COc1ccc(C(C)(C)c2csc(NC(=O)NCc3cnc(NCCO)c(F)c3)n2)cc1` [Example A105, 1-((5-fluoro-6-((2-hydroxyethyl)amino)pyri-din-3-yl)methyl)-3-(4-(2-(4-methoxyphenyl)propan-2-yl)thiazol-2-yl)urea], the IC50 in test [1] was 1020 nM; in test [2], 144 nM.

With `C#C[C@@](C)(c1ccc(Cl)cc1)c1csc(NC(=O)NCC2(O)CNC2)n1` (stereo in doubt) [Example A287, 1-(4-(2-(4-chlorophenyl)but-3-yn-2-yl)thiazol-2-yl)-3-((3-hydroxyazetidin-3-yl)methyl)urea], the IC50 in test [1] worked out at 4400 nM; in test [2], 130 nM.

On to `C#C[C@](C)(c1ccc(OC)cc1)c1csc(NC(=O)NCCO)n1` [Example A169, (R)-1-(2-hydroxyethyl)-3-(4-(2-(4-methoxyphenyl)but-3-yn-2-yl)thiazol-2-yl)urea], for which the IC50 in test [1] amounted to 1670 nM; in test [2], 23 nM.

With `CC(C)(c1ccc(Br)cc1)c1csc(NC(=O)NC(CO)c2ccc(N3CCNCC3)cc2)n1` (centres unmarked) [Example A101, 1-(4-(2-(4-bromophenyl)propan-2-yl)thiazol-2-yl)-3-(2-hydroxy-1-(4-(piperazin-1-yl)phenyl)ethyl)urea], the IC50 in test [1] was 1650 nM; in test [2], 50 nM.

In the case of `CC1CN(c2ccc(CNC(=O)Nc3nc(C(C)(C)c4ccc(Br)cc4)cs3)cc2)CCN1` (centres unmarked) [Example A194, 1-(4-(2-(4-bromophenyl)propan-2-yl)thiazol-2-yl)-3-(4-(3-methylpiperazin-1-yl)benzyl)urea], the IC50 in test [1] was found to be 3710 nM; in test [2], 172 nM.

For `CC(NC(=O)Nc1nc(C(C)(C)c2ccc(Br)cc2)cs1)c1cc(F)c(N2CCNCC2)c(F)c1` (centres unmarked) [Example A003, 1-(4-(2-(4-bromophenyl)propan-2-yl)thiazol-2-yl)-3-(1-(3,5-difluoro-4-(piperazin-1-yl)phenyl)ethyl)urea], the IC50 in test [1] amounted to 1200 nM; in test [2] it was 45 nM.

As for `C#C[C@@](C)(c1ccc(F)cc1)c1csc(NC(=O)NCCS(N)(=O)=O)n1` [Example A285, 2-(3-(4-(2-(4-fluorophenyl)but-3-yn-2-yl)thiazol-2-yl)ureido)ethanesulfona-mide], the IC50 worked out at 1360 nM in test [1] and 350 nM in test [2].

As for `COc1ccc(C(C)(C)c2csc(NC(=O)NCc3cnc(N4CCN(CCO)CC4)nc3)n2)cc1` [Example A208, 1-((2-(4-(2-hydroxyethyl)piperazin-1-yl)pyrimidin-5-yl)methyl)-3-(4-(2-(4-methoxyphenyl)propan-2-yl)thiazol-2-yl)urea], the values for the IC50 in test [1] and in test [2] were 760 nM and 78 nM, respectively.

Consider `Cc1sc(NC(=O)NCc2ccc(N3CCNCC3)cc2)nc1C(C)(C)c1ccc(Br)cc1` [Example A030, 1-(4-(2-(4-bromophenyl)propan-2-yl)-5-methylthiazol-2-yl)-3-(4-(piperazin-1-yl)benzyl)urea], for which the IC50 in test [1] worked out at 4110 nM; in test [2], 232 nM.

On to `CC(C)(c1ccc(Br)cc1)c1csc(NC(=O)NCc2cnc(N3CCCNCC3)nc2)n1` [Example A091, 1-((2-(1,4-diazepan-1-yl)pyrimidin-5-yl)methyl)-3-(4-(2-(4-bromophenyl)propan-2-yl)thiazol-2-yl)urea], for which the IC50 in test [1] was 3450 nM; in test [2], 135 nM.

For `C#CC(C)(c1ccc(Cl)cc1)c1csc(NC(=O)NCC(C)(C)O)n1` (centres unmarked) [Example A268, 1-(4-(2-(4-chlorophenyl)but-3-yn-2-yl)thiazol-2-yl)-3-(2-hydroxy-2-methylpropyl)urea], the IC50 in test [1] is 1310 nM; in test [2], 218 nM.

Regarding `COc1ccc(C(C)(C)c2csc(NC(=O)NCc3ccc(C(=O)NC4CCN(C)CC4)cc3)n2)cc1` [Example A018, 4-((3-(4-(2-(4-methoxyphenyl)propan-2-yl)thiazol-2-yl)ureido)methyl)-N-(1-methylpiperidin-4-yl)benzamide], the IC50 is 1280 nM in test [1] and 29 nM in test [2].

On to `C#C[C@](C)(c1ccc(Cl)cc1)c1csc(NC(=O)N2CC(CO)C2)n1` [Example A257, (R)-N-(4-(2-(4-chlorophenyl)but-3-yn-2-yl)thiazol-2-yl)-3-(hydroxymethyl)azetidine-1-carboxamide], for which the IC50 in test [1] was found to be 2010 nM; in test [2], 1550 nM.

As to `CC(C)(c1ccc(Br)cc1)c1csc(NC(=O)NCc2ccc(N3CCNCC3)c(C(F)(F)F)c2)n1` [Example A049, 1-(4-(2-(4-bromophenyl)propan-2-yl)thiazol-2-yl)-3-(4-(piperazin-1-yl)-3-(trifluoromethyl)benzyl) urea], the IC50 in test [1] is 800 nM; in test [2] it was 119 nM.

On to `COc1ccc(C(C)(C)c2csc(NC(=O)NC(C)c3cc(F)c(N4CCNCC4)cc3F)n2)cc1` (centres unmarked) [Example A002, 1-(1-(2,5-difluoro-4-(piperazin-1-yl)phenyl)ethyl)-3-(4-(2-(4-methoxyphenyl)propan-2-yl)thiazol-2-yl)urea], for which the results for the 50% inhibitory concentration (IC50) in test [1] and in test [2] were 700 nM and 63 nM, respectively.

In the case of `CC(C)(c1ccc(Br)cc1)c1csc(NC(=O)NCCS(C)(=O)=O)n1` [Example A066, 1-(4-(2-(4-bromophenyl)propan-2-yl)thiazol-2-yl)-3-(2-(methylsulfonyl)ethyl)urea], the figures for the IC50 in test [1] and in test [2] were 10500 nM and 126 nM, respectively.

As to `C#CC(C)(c1ccc(Cl)cc1)c1csc(NC(=O)N2CC(CN3CCC(N)CC3)C2)n1` (centres unmarked) [Example A263, 3-((4-aminopiperidin-1-yl)methyl)-N-(4-(2-(4-chlorophenyl)but-3-yn-2-yl)thiazol-2-yl)azetidine-1-carboxamide], the figures for the IC50 in test [1] and in test [2] were 1440 nM and 39 nM, respectively.
